Data reported in ChEMBL document CHEMBL6074646, “Carvacrol-conjugated 3-Hydroxybenzoic Acids: Design, Synthesis, cardioprotective potential against doxorubicin-induced Cardiotoxicity, and ADMET study” (Bioorg Med Chem Lett, 2024).
Active and inactive are the calls of the source. No cut-off for these calls is given here.

Tests used:
[1] = tested on: H9c2; assay: Cytotoxicity against rat H9C2 cells at 10 uM incubated for 48 hrs by cell counting assay; type: toxicity, cell-based; conditions: h9c2, 48 h
[2] = tested on: H9c2; assay: Protection against doxorubicin-induced cardiotoxicity in rat H9c2 cells assessed as increase in cell viability at 10 uM preincubated for 24 hrs followed by doxorubicin stimulation and measured after 24 hrs; type: functional, cell-based; conditions: time 48.0 hrs

| SMILES | Activity [1] | Activity [2] |
| --- | --- | --- |
| Cc1ccc(C(C)C)cc1OCCCOC(=O)c1cccc(O)c1 | Non-toxic | – |
| Cc1ccc(C(C)C)cc1OCCCCOC(=O)c1cccc(O)c1 | Non-toxic | Active |
| Cc1cc(CO)c(C(C)C)cc1OCCCOC(=O)c1cccc(O)c1 | Non-toxic | inactive |
| Cc1ccc(C(C)C)cc1O [CARVACROL] | Non-toxic | inactive |
| O=C(O)c1cccc(O)c1 [3-HYDROXYBENZOIC ACID] | Non-toxic | inactive |
| Cc1ccc(C(C)C)cc1OC(=O)CCOC(=O)c1cccc(O)c1 | Non-toxic | – |
| Cc1cc(CO)c(C(C)C)cc1OC(=O)CCOC(=O)c1cccc(O)c1 | Non-toxic | inactive |
| Cc1cc(CO)c(C(C)C)cc1OCCOC(=O)c1cccc(O)c1 | Non-toxic | inactive |
| Cc1ccc(C(C)C)cc1OCCOC(=O)c1cccc(O)c1 | Non-toxic | – |
| Cc1cc(CO)c(C(C)C)cc1OC(=O)CCCOC(=O)c1cccc(O)c1 | Non-toxic | inactive |
| Cc1ccc(C(C)C)cc1OC(=O)CCCOC(=O)c1cccc(O)c1 | Non-toxic | – |
| Cc1cc(CO)c(C(C)C)cc1OC(=O)COC(=O)c1cccc(O)c1 | Non-toxic | inactive |
| Cc1cc(CO)c(C(C)C)cc1OCCCCOC(=O)c1cccc(O)c1 | Non-toxic | inactive |
| Cc1ccc(C(C)C)cc1OC(=O)COC(=O)c1cccc(O)c1 | Non-toxic | – |
